Assay results taken from paper PMC3016297 (Bioorganic & medicinal chemistry, 2010).
pEC50, pIC50: −log10 of the molar value. Read-outs that look alike come from different tables or passages of the source.

What was measured:
HIV-1IIIB = conditions: cited from earlier work; for pEC50: HIV-1IIIB infected H9 lymphocytes
mock-infected MT-4 cell [1] = conditions: read-out: IC50, concentration that inhibits mock-infected MT-4 cell growth by 50%; mock-infected MT-4 cells; cited from earlier work
HIV-1NL4-3 = HIV-1NL4-3 inhibition assay in MT-4 lymphocytes; type: cell-based; conditions: HIV-1NL4-3 infected MT-4 cells; for fold more active than the corresponding compound not linked to AZT: 49 vs 63, 52 vs 64
mock-infected MT-4 cell [2] = assay: Growth inhibition of mock-infected MT-4 cells; type: cell-based; conditions: Homo sapiens, MT4, read-out: IC50, concentration that inhibits mock-infected MT-4 cell growth by 50%

**Q.** With `C=C(C)[C@@H]1CC[C@]2(C(=O)O)CC[C@]3(C)[C@H](CC[C@@H]4[C@@]5(C)CC[C@H](OC(=O)CC(C)(C)C(=O)O)C(C)(C)[C@@H]5CC[C@]43C)[C@@H]12` [Compound 2, 3-O-(3',3'-dimethylsuccinyl)betulinic acid] as the molecule, how does the pEC50 (HIV-1IIIB) read?
**A.** > 9.46

**Q.** What about the pIC50 (mock-infected MT-4 cell [1]) of the same molecule?
**A.** < 5.30

**Q.** With `CC(C)[C@@H]1CC[C@]2(CO)CC[C@]3(C)[C@H](CC[C@@H]4[C@@]5(C)CC[C@H](OC(=O)CCCC(=O)O)C(C)(C)[C@@H]5CC[C@]43C)[C@@H]12` [Compound 4, 3-O-glutaryldihydrobetulin] as the molecule, how does the pEC50 (HIV-1IIIB) read?
**A.** 10.70

**Q.** With `C=C(C)[C@@H]1CC[C@]2(COC(=O)CC(C)(C)CC(=O)O)CC[C@]3(C)[C@H](CC[C@@H]4[C@@]5(C)CC[C@H](OC(=O)CC(C)(C)CC(=O)O)C(C)(C)[C@@H]5CC[C@]43C)[C@@H]12` [Compound 5, 3,28-di-O-(3',3'-dimethylglutaryl)betulin] as the molecule, how does the pEC50 (HIV-1IIIB) read?
**A.** 9.18

**Q.** With `C=C(C)[C@@H]1CC[C@]2(COC(=O)C(C)(C)CC(=O)O)CC[C@]3(C)[C@H](CC[C@@H]4[C@@]5(C)CC[C@H](OC(=O)CC(C)(C)C(=O)O)C(C)(C)[C@@H]5CC[C@]43C)[C@@H]12` [Compound 6, 3-O-(3',3'-dimethylsuccinyl)-28-O-(2",2"-dimethylsuccinyl)betulin] as the molecule, how does the “fold more potent against HIV replication than its isomer with a 3,3-dimethylsuccinyl side chain at C-28” value (HIV-1IIIB; H9 lymphocytes assay) read?
**A.** 230 fold

**Q.** And the pEC50 (HIV-1IIIB)?
**A.** 9.06

**Q.** Which “fold more active than the corresponding compound not linked to AZT” value (HIV-1NL4-3) does the source give for `C=C(C)[C@@H]1CC[C@]2(COC(=O)CCC(=O)OC[C@H]3O[C@@H](n4cc(C)c(=O)[nH]c4=O)C[C@@H]3N=[N+]=[N-])CC[C@]3(C)[C@H](CC[C@@H]4[C@@]5(C)CC[C@H](OC(=O)CC(C)(C)C(=O)O)C(C)(C)[C@@H]5CC[C@]43C)[C@@H]12` [Compound 49, 3'-Azido-3'-deoxythymidine-5'-yl 3-O-(3',3'-dimethylsuccinyl)-lup-20(29)en-28-yl succinate] here?
**A.** four

**Q.** For `C=C(C)[C@@H]1CC[C@]2(COC(=O)CCCC(=O)OC[C@H]3O[C@@H](n4cc(C)c(=O)[nH]c4=O)C[C@@H]3N=[N+]=[N-])CC[C@]3(C)[C@H](CC[C@@H]4[C@@]5(C)CC[C@H](OC(=O)CC(C)(C)C(=O)O)C(C)(C)[C@@H]5CC[C@]43C)[C@@H]12` [Compound 52, 3'-Azido-3'-deoxythymidine-5'-yl 3-O-(3',3'-dimethylsuccinyl)-lup-20(29)en-28-yl glutarate], which “fold more active than the corresponding compound not linked to AZT” value (HIV-1NL4-3) is on record?
**A.** five

**Q.** Which “anti-HIV activity in words” value (HIV-1NL4-3) does the source give for `C=C(C)[C@@H]1CC[C@]2(COC(=O)CC(C)(C)CC(=O)OC[C@H]3O[C@@H](n4cc(C)c(=O)[nH]c4=O)C[C@@H]3N=[N+]=[N-])CC[C@]3(C)[C@H](CC[C@@H]4[C@@]5(C)CC[C@H](OC(=O)CC(C)(C)CC(=O)O)C(C)(C)[C@@H]5CC[C@]43C)[C@@H]12` [Compound 54, 3'-Azido-3'-deoxythymidine-5'-yl 3-O-(3',3'-dimethylglutaryl)-lup-20(29)en-28-yl 3,3-dimethylglutarate] here?
**A.** only moderate activity

**Q.** For `Cc1cn([C@H]2C[C@H](N=[N+]=[N-])C(COC(=O)CC(C)(C)CC(=O)OC[C@]34CC[C@@H](C(C)C)[C@@H]3[C@H]3CC[C@@H]5[C@@]6(C)CC[C@H](OC(=O)CCCC(=O)O)C(C)(C)[C@@H]6CC[C@@]5(C)[C@]3(C)CC4)O2)c(=O)[nH]c1=O` (stereo partly drawn) [Compound 61, 3'-Azido-3'-deoxythymidine-5'-yl 3-O-glutaryl-lup-28-yl 3,3-dimethylglutarate], which “anti-HIV activity in words” value (HIV-1NL4-3) is on record?
**A.** the weakest compound

**Q.** Which “anti-HIV activity in words” value (HIV-1NL4-3) does the source give for `Cc1cn([C@H]2C[C@H](N=[N+]=[N-])C(COC(=O)CC(C)(C)CC(=O)OC[C@]34CC[C@@H](C(C)C)[C@@H]3[C@H]3CC[C@@H]5[C@@]6(C)CC[C@H](OC(=O)CC(C)(C)CC(=O)O)C(C)(C)[C@@H]6CC[C@@]5(C)[C@]3(C)CC4)O2)c(=O)[nH]c1=O` (stereo partly drawn) [Compound 62, 3'-Azido-3'-deoxythymidine-5'-yl 3-O-(3',3'-dimethylglutaryl)-lup-28-yl 3,3-dimethylglutarate] here?
**A.** only moderate activity

**Q.** With `C=C(C)[C@@H]1CC[C@]2(COC(=O)CCCC(=O)O)CC[C@]3(C)[C@H](CC[C@@H]4[C@@]5(C)CC[C@H](OC(=O)CC(C)(C)C(=O)O)C(C)(C)[C@@H]5CC[C@]43C)[C@@H]12` [Compound 64] as the molecule, how does the pIC50 (mock-infected MT-4 cell [2]) read?
**A.** < 4.84
